# Laboratory results: patent publication US8435980B2 (AbbVie Inc., priority 2009, dated 2013)
# Biological target: T1, Cdc7 (BEV coexpressed huCDC7/DBF4) (Homo sapiens, UniProt O00311)
# T1 construct: made in house; host or cells: BEV (baculovirus expression vector) co-expression; insect cells are implied but no cell line is named
# Test: Cdc7 enzyme inhibition assay ([33P]ATP, biotinylated peptide substrate, FlashPlate)
# Type: biochemical
# Settings: not given
# Method: Cdc7 (BEV coexpressed huCDC7/DBF4) is prepared internally. Cdc7 assays are conducted as follows with final concentrations as listed. […] Reactions are quenched after 1 hr by the addition of 90 μL stop buffer (50 mM EDTA, 2M NaCl). […] (Ki) for exemplary compounds.
# T1 sequence (O00311 whole entry): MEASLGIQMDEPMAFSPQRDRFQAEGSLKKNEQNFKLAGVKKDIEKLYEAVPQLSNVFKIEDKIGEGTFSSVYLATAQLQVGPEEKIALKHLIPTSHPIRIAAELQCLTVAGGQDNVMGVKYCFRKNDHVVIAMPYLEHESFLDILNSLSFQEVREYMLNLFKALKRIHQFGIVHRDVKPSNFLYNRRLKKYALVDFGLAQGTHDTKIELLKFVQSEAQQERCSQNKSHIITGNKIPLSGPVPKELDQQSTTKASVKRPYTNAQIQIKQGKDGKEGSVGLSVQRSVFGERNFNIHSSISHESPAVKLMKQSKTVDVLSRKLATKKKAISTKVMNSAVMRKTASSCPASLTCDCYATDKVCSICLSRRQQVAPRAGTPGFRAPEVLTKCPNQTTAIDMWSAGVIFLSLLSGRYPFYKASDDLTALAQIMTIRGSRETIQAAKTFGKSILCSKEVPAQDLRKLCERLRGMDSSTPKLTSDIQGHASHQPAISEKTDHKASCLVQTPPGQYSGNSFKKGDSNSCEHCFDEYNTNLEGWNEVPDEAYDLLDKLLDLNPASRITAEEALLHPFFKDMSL
# T1 sequence (Q9UBU7 whole entry partner): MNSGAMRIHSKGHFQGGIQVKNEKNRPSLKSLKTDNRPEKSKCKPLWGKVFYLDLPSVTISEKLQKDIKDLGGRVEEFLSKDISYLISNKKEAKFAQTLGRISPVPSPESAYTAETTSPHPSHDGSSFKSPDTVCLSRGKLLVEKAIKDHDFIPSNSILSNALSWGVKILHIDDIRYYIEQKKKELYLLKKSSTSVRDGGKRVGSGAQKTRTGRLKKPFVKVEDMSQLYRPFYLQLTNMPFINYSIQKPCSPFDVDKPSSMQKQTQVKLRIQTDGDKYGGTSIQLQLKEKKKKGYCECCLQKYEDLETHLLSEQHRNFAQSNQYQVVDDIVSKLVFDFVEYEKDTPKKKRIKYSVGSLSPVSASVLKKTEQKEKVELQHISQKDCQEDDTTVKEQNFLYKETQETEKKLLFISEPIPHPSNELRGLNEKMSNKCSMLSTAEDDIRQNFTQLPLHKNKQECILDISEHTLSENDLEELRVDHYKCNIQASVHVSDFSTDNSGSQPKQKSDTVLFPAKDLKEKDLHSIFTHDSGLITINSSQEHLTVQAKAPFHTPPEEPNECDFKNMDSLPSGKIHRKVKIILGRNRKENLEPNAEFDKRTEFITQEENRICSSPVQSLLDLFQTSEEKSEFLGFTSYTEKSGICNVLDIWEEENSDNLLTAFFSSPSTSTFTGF
row,Structure (SMILES),Ki [µM]
1,CC(C)(CO)CCCNc1cc(-c2c[nH]c3ncccc23)cc(Cl)n1 [Example 20],< 0.01
2,"Clc1cc(-c2c[nH]c3ncccc23)cc(NCc2ccncc2)n1 [Example 31, 6-chloro-N-(pyridin-4-ylmethyl)-4-(1H-pyrrolo[2,3-b]pyridin-3-yl)pyridin-2-amine]",0.01 to 0.1
3,"OCCCCNc1cc(-c2c[nH]c3ncccc23)cc(Cl)n1 [Example 19, 4-{[6-chloro-4-(1H-pyrrolo[2,3-b]pyridin-3-yl)pyridin-2-yl]amino}butan-1-ol]",< 0.01
4,"OCCOCCNc1cc(-c2c[nH]c3ncccc23)cc(Cl)n1 [Example 41, 2-(2-{[6-chloro-4-(1H-pyrrolo[2,3-b]pyridin-3-yl)pyridin-2-yl]amino}ethoxy)ethanol]",0.01 to 0.1

# Same assay, conditions: Table 2; Comparative Example lacking the chloro substituent versus the chloro Example
row,Structure (SMILES),Ki ratio comparisons (Ki Comparative Example/Ki Example)
1,"Cc1cc(-c2c[nH]c3ncccc23)cc(NCc2ccccc2)n1 [Comparative Example 3, N-benzyl-6-methyl-4-(1H-pyrrolo[2,3-b]pyridin-3-yl)pyridin-2-amine, reference compound]",75
2,"Cc1cc(-c2c[nH]c3ncccc23)cc(N[C@H]2CC[C@H](O)CC2)n1 [Comparative Example 4, Trans-4-{[6-methyl-4-(1H-pyrrolo[2,3-b]pyridin-3-yl)pyridin-2-yl]amino}cyclohexanol, reference compound]",54

# Same assay, conditions: Table 3; enzyme inhibition data (Ki)
row,Structure (SMILES),Ki [µM]
1,"CN(C)CC(=O)N[C@H]1CC[C@H](Nc2cc(-c3c[nH]c4ncccc34)cc(Cl)n2)CC1 [Example 114, N-(trans-4-{[6-chloro-4-(1H-pyrrolo[2,3-b]pyridin-3-yl)pyridin-2-yl]amino}cyclohexyl)-N^2,N^2-dimethylglycinamide]",< 0.01
2,"Clc1cc(-c2c[nH]c3ncccc23)cc(NCCCN2CCOCC2)n1 [Example 375, 6-chloro-N-[3-(morpholin-4-yl)propyl]-4-(1H-pyrrolo[2,3-b]pyridin-3-yl)pyridin-2-amine]",0.01 to 0.1
3,"COc1cnc2[nH]cc(-c3cc(Cl)nc(NC4CCC(CC5CCC(NCC6CCCC6)CC5)CC4)c3)c2c1 (centres unmarked) [Example 426, 6-chloro-N-[4-({4-[(cyclopentylmethyl)amino]cyclohexyl}methyl)cyclohexyl]-4-(5-methoxy-1H-pyrrolo[2,3-b]pyridin-3-yl)pyridin-2-amine]",< 0.01
4,"CC(C)(C)CNCC(=O)N[C@H]1CC[C@H](Nc2cc(-c3c[nH]c4ncccc34)cc(Cl)n2)CC1 [Example 355, N-(trans-4-{[6-chloro-4-(1H-pyrrolo[2,3-b]pyridin-3-yl)pyridin-2-yl]amino}cyclohexyl)-N~2~-(2,2-dimethylpropyl)glycinamide]",< 0.01
5,"NS(=O)(=O)c1ccc(-c2cnc3[nH]cc(-c4cc(Cl)nc(NC5CCCCC5)c4)c3c2)cc1 [Example 223, 4-{3-[2-chloro-6-(cyclohexylamino)pyridin-4-yl]-1H-pyrrolo[2,3-b]pyridin-5-yl}benzenesulfonamide]",< 0.01
6,"Clc1cc(-c2c[nH]c3ncccc23)cc(Nc2ccc(N3CCOCC3)cc2)n1 [Example 438, 6-chloro-N-[4-(morpholin-4-yl)phenyl]-4-(1H-pyrrolo[2,3-b]pyridin-3-yl)pyridin-2-amine]",< 0.01
7,"C#CCOc1cnc2[nH]cc(-c3cc(Cl)nc(N[C@H]4CC[C@H](N)CC4)c3)c2c1 [Example 241, (trans)-N1-(6-chloro-4-(5-(prop-2-ynyloxy)-1H-pyrrolo[2,3-b]pyridin-3-yl)pyridin-2-yl)cyclohexane-1,4-diamine]",0.01 to 0.1
8,"CC(=O)NCC(C)(C)CNc1cc(-c2c[nH]c3ncccc23)cc(Cl)n1 [Example 113, N-(3-{[6-chloro-4-(1H-pyrrolo[2,3-b]pyridin-3-yl)pyridin-2-yl]amino}-2,2-dimethylpropyl)acetamide]",< 0.01
9,"Clc1cc(-c2c[nH]c3ncccc23)nc(N[C@H]2CC[C@H](NC3CCC3)CC2)n1 [Example 275, trans-N-[4-chloro-6-(1H-pyrrolo[2,3-b]pyridin-3-yl)pyrimidin-2-yl]-N′-cyclobutylcyclohexane-1,4-diamine]",< 0.01
10,"COc1ccc(CNc2cc(-c3c[nH]c4ncccc34)cc(Cl)n2)cc1 [Example 397, 6-chloro-N-(4-methoxybenzyl)-4-(1H-pyrrolo[2,3-b]pyridin-3-yl)pyridin-2-amine]",< 0.01
11,"CCCNC(=O)NC1CCCC(Nc2cc(-c3c[nH]c4ncccc34)cc(Cl)n2)C1 (centres unmarked) [Example 308, 1-(3-{[6-chloro-4-(1H-pyrrolo[2,3-b]pyridin-3-yl)pyridin-2-yl]amino}cyclohexyl)-3-propylurea]",< 0.01
12,"CN1CCN(Cc2cccc(-c3cnc4[nH]cc(-c5cc(Cl)nc(NC6CCCCC6)c5)c4c3)c2)CC1 [Example 221, 6-chloro-N-cyclohexyl-4-(5-{3-[(4-methylpiperazin-1-yl)methyl]phenyl}-1H-pyrrolo[2,3-b]pyridin-3-yl)pyridin-2-amine]",< 0.01
13,"Clc1cc(-c2c[nH]c3ncccc23)cc(NC2CCCC(NCc3nccs3)C2)n1 (centres unmarked) [Example 290, N-[6-chloro-4-(1H-pyrrolo[2,3-b]pyridin-3-yl)pyridin-2-yl]-N′-(1,3-thiazol-2-ylmethyl)cyclohexane-1,3-diamine]",< 0.01
14,"O=C(NC1CCCC(Nc2cc(-c3c[nH]c4ncccc34)cc(Cl)n2)C1)c1cnccn1 (centres unmarked) [Example 294, N-(3-{[6-chloro-4-(1H-pyrrolo[2,3-b]pyridin-3-yl)pyridin-2-yl]amino}cyclohexyl)pyrazine-2-carboxamide]",< 0.01
15,"Clc1cc(-c2c[nH]c3ncccc23)cc(NC2CCC(C3CCCN(C4CCC4)C3)CC2)n1 (centres unmarked) [Example 189, 6-chloro-N-[4-(1-cyclobutylpiperidin-3-yl)cyclohexyl]-4-(1H-pyrrolo[2,3-b]pyridin-3-yl)pyridin-2-amine]",< 0.01
16,"O=C(N[C@H]1CC[C@H](Nc2cc(-c3c[nH]c4ncccc34)cc(Cl)n2)CC1)C1CCCC1 [Example 341, N-(trans-4-{[6-chloro-4-(1H-pyrrolo[2,3-b]pyridin-3-yl)pyridin-2-yl]amino}cyclohexyl)cyclopentanecarboxamide]",< 0.01
17,"Clc1cc(-c2c[nH]c3ncccc23)cc(NC2CCCC(NCc3cccc(CN4CCCCC4)c3)C2)n1 (centres unmarked) [Example 291, N-[6-chloro-4-(1H-pyrrolo[2,3-b]pyridin-3-yl)pyridin-2-yl]-N′-[3-(piperidin-1-ylmethyl)benzyl]cyclohexane-1,3-diamine]",< 0.01
18,"CCCS(=O)(=O)N[C@H]1CC[C@H](Nc2nc(Cl)cc(-c3c[nH]c4ncccc34)n2)CC1 [Example 479, N-(trans-4-{[4-chloro-6-(1H-pyrrolo[2,3-b]pyridin-3-yl)pyrimidin-2-yl]amino}cyclohexyl)propane-1-sulfonamide]",< 0.01
19,"NC1CCC(N[C@H]2CC[C@H](Nc3cc(-c4c[nH]c5ncccc45)cc(Cl)n3)CC2)CC1 (relative stereo) [Example 158, trans-N-(4-aminocyclohexyl)-N′-[6-chloro-4-(1H-pyrrolo[2,3-b]pyridin-3-yl)pyridin-2-yl]cyclohexane-1,4-diamine]",< 0.01
20,"OCCCNc1cc(-c2c[nH]c3ncccc23)cc(Cl)n1 [Example 374, 3-{[6-chloro-4-(1H-pyrrolo[2,3-b]pyridin-3-yl)pyridin-2-yl]amino}propan-1-ol]",< 0.01
21,"O=C(NC1CCCC(Nc2nc(Cl)cc(-c3c[nH]c4ncccc34)n2)C1)C1CC1 (centres unmarked) [Example 272, N-(3-{[4-chloro-6-(1H-pyrrolo[2,3-b]pyridin-3-yl)pyrimidin-2-yl]amino}cyclohexyl)cyclopropanecarboxamide]",< 0.01
22,"Clc1cc(-c2c[nH]c3ncccc23)cc(NCCc2ccncc2)n1 [Example 403, 6-chloro-N-[2-(pyridin-4-yl)ethyl]-4-(1H-pyrrolo[2,3-b]pyridin-3-yl)pyridin-2-amine]",< 0.01
23,"O=C(CN1CCOCC1)N[C@H]1CC[C@H](Nc2cc(-c3c[nH]c4ncccc34)cc(Cl)n2)CC1 [Example 141, N-(trans-4-{[6-chloro-4-(1H-pyrrolo[2,3-b]pyridin-3-yl)pyridin-2-yl]amino}cyclohexyl)-2-(morpholin-4-yl)acetamide]",< 0.01
24,"CC(C)CN[C@H]1CC[C@H](Nc2cc(-c3c[nH]c4ncccc34)cc(Cl)n2)CC1 [Example 322, trans-N-[6-chloro-4-(1H-pyrrolo[2,3-b]pyridin-3-yl)pyridin-2-yl]-N′-(2-methylpropyl)cyclohexane-1,4-diamine]",< 0.01
25,"O=C(NCCS(=O)(=O)NC1CCCC(Nc2cc(-c3c[nH]c4ncccc34)cc(Cl)n2)C1)c1cnccn1 (centres unmarked) [Example 172, N-{2-[(3-{[6-chloro-4-(1H-pyrrolo[2,3-b]pyridin-3-yl)pyridin-2-yl]amino}cyclohexyl)sulfamoyl]ethyl}pyrazine-2-carboxamide]",< 0.01
26,"O=S1(=O)CCN(c2ccc(Nc3cc(-c4c[nH]c5ncccc45)cc(Cl)n3)cc2)CC1 [Example 444, 6-chloro-N-[4-(1,1-dioxidothiomorpholin-4-yl)phenyl]-4-(1H-pyrrolo[2,3-b]pyridin-3-yl)pyridin-2-amine]",< 0.01
27,"CN(C)C1CCC(Nc2nc(Cl)cc(-c3c[nH]c4ncccc34)n2)CC1 (centres unmarked) [Example 459, N′-[4-chloro-6-(1H-pyrrolo[2,3-b]pyridin-3-yl)pyrimidin-2-yl]-N,N-dimethylcyclohexane-1,4-diamine]",< 0.01
28,"CCN(CCO)CC(=O)N[C@H]1CC[C@H](Nc2cc(-c3c[nH]c4ncccc34)cc(Cl)n2)CC1 [Example 356, N-(trans-4-{[6-chloro-4-(1H-pyrrolo[2,3-b]pyridin-3-yl)pyridin-2-yl]amino}cyclohexyl)-N~2~-ethyl-N~2~-(2-hydroxyethyl)glycinamide]",< 0.01
29,"COc1cnc2[nH]cc(-c3cc(Cl)nc(NC4CCC(CC5CCC(NC6CCCCC6)CC5)CC4)c3)c2c1 (centres unmarked) [Example 238, 6-chloro-N-(4-{[4-(cyclohexylamino)cyclohexyl]methyl}cyclohexyl)-4-(5-methoxy-1H-pyrrolo[2,3-b]pyridin-3-yl)pyridin-2-amine]",< 0.01
